{"source": "patent US20070213400A1", "about": "“ALCOHOL-METABOLISM ENHANCING COMPOSITION AND INGESTA CONTAINING THE SAME” (Taiyokagaku Co., Ltd., priority 2004, published 2007)", "key": {"[1]": {"test": "Ethanol concentration in the blood after ingestion of ethanol (ADH method)", "assay_type": "in vivo, CDF1 male mice", "conditions": "mice; for Ethanol concentration in the blood, Mean: ethanol 3.0 g/kg oral, theanine 100 mg/kg", "method": "(§1) Ethanol was ingested to CDF1 male mice 3.0 g/weight by kg by oral administration. Theanine was ingested to the abdominal cavity of each mouse once before ingestion of ethanol. Concentration of ethanol in the blood and concentration of lipid peroxide in the liver were measured. GSH concentration was also measured. Furthermore, alcohol dehydrogenase, aldehyde dehydrogenase and enzyme activity of […] were also measured.\nThe concentration of ethanol in the blood was measured by the following ADH method. 0.1 mL of blood was added to 0.8 mL of 0.33 N perchloric acid. After execution of a vortex process, a centrifugal process was carried out under the condition of 1200 g for 5 minutes. 0.1 mL of supernatant was mixed with 0.1 mL of buffer liquid containing […] of sodium phosphate/semicarbazide buffer liquid (pH8.7) and 0.48 mM of NAD. 0.02 mL of ADH (≧32 IU/mL) was further added to the mixture and incubated at 37° C. for 25 minutes. Thereafter, absorbance was measured at 340 nm. An unknown sample concentration was calculated by the comparison of ethanol concentration with known standard sample data."}, "GPT": {"tested_on": "GPT", "test": "Chronic administration, alcoholic liver injury: GPT in the blood", "assay_type": "in vivo, CDF1 male mice", "conditions": "mice, ethanol 1.0 or 2.0 g/kg oral twice a day, theanine 100 mg/kg abdominal cavity, ten days (FIG. 6)", "method": "Ethanol was ingested to CDF1 male mice (5 weeks old) 1.0 g/kg-weight or 2.0 g/kg-weight by oral administration twice in a day. Theanine was ingested to the abdominal cavity of each mouse 100 mg/kg-weight. After ingestion of ethanol and theanine for ten days, concentrations of GOT, GPT, and γ-GTP in the blood were measured. Concentrations of lipid peroxide and GSH in the liver were measured.\n(§2) The concentrations of GOT and […] in the blood were measured by using the […] C-test WAKO (WAKO Pure Chemical Industries, Ltd). The concentration of γ-GTP was measured by using the γ-GTP C-test WAKO (WAKO Pure Chemical Industries, Ltd) Concentrations of lipid peroxide and GSH in the liver were measured by the method written in Embodiment 1.\nThe concentration of GPT was measured by the following method. 0.02 mL of serum was added to 0.5 mL of GPT-measuring-substrate-buffer and incubated at 37° C. for 5 minutes. Thereafter, 0.5 mL of coloring reagent was added, incubated at 37° C. for 20 minutes. 2.0 mL of stop solution was added to the mixture. Thereafter absorbance was measured at 555 nm. GPT activity (Karmen unit) in the blood was calculated by the comparison of GPT activity with known standard sample data plot."}, "[2]": {"tested_on": "lipid peroxide in the liver", "test": "Chronic administration, alcoholic liver injury: lipid peroxide in the liver", "assay_type": "in vivo, CDF1 male mice", "conditions": "mice, ethanol 1.0 or 2.0 g/kg oral twice a day, theanine 100 mg/kg abdominal cavity, ten days", "method": "The lipid peroxide concentration in the liver was measured in the following method (TBA fluorometry). 0.1 mL of liver sample (2% homogenate in physiological salt solution) was added with 0.5 mL of 3% SDS, 1.5 mL of 2.0 M acetic acid buffer liquid (pH3.6), 1.5 mL of 0.8% thiobarbituric acid and 0.4 mL of purified water so that a total amount was 4.0 mL. In a standard sample, 20 μL of 50 μmol/L malondialdehyde (MDA) was added instead of the above liver sample and 0.48 purified water was added. The solution was heat-treated in boiling water for 75 minutes and thereafter, cooled for 5 minutes. […] The unknown sample was calculated using calibration curve.\nEthanol was ingested to CDF1 male mice (5 weeks old) 1.0 g/kg-weight or 2.0 g/kg-weight by oral administration twice in a day. […] After ingestion of ethanol and theanine for ten days, concentrations of GOT, GPT, and γ-GTP in the blood were measured. Concentrations of lipid peroxide and GSH in the liver were measured.\nas §2"}, "GSH in the liver": {"tested_on": "GSH in the liver", "test": "Chronic administration, alcoholic liver injury: GSH in the liver", "assay_type": "in vivo, CDF1 male mice", "conditions": "mice, ethanol 1.0 or 2.0 g/kg oral twice a day, theanine 100 mg/kg abdominal cavity, ten days (FIG. 7)", "method": "(§3) The GSH concentration in the liver was measured by the following method (HiSSIN-Hilf). 5% homogenate of the liver or heart was prepared in a 0.1 M sodium phosphate-0.005 M EDTA buffer liquid (pH 8.0) using a potter type Teflon homogenizer while being iced. 0.25 mL of 25% metaphosphoric acid was added to 0.75 mL of homogenate liquid and mixed well. 10000 g of substance was centrifugally processed for 30 minutes. Thereafter, supernatant was sampled and diluted by 50 times with 0.1 M sodium phosphate-0.005 M EDTA buffer liquid (pH 8.0). To 0.20 mL of the diluted liquid was added 3.6 mL of 0.1 M sodium phosphate-0.005 M EDTA buffer liquid (pH 8.0) and 0.20 mL of 0.1% o-phthalaldehyde (OPT) -methanol liquid. The mixture was left at a room temperature for 5 minutes and thereafter, the fluorometry (excitation wavelength: 350 nm; and fluorescent wavelength: 420 nm) was carried out. The unknown sample was calculated using calibration curve."}, "mice": {"tested_on": "mice", "assay_type": "in vivo", "conditions": "oral administration of theanine by 5 g/kg", "excerpt": "Theanine used in the invention has a high security. […] Furthermore, theanine is known as a principal component of deliciousness of tea and used as a food additive for use as gustatory. An amount of theanine to be added is not limited under the Food Sanitation Law. Moreover, differing from conventional medical substances, theanine has no adverse side effect. Consequently, the composition of the invention can be used as a safe and effective alcohol-metabolism enhancing composition."}, "aldehyde dehydrogenase": {"tested_on": "aldehyde dehydrogenase", "test": "Liver aldehyde dehydrogenase (ALDH) activity after ingestion of ethanol", "assay_type": "in vivo, CDF1 male mice", "conditions": "mouse liver, 3 hours after ingestion of ethanol", "method": "as §1"}, "alcohol dehydrogenase": {"tested_on": "alcohol dehydrogenase", "test": "Liver alcohol dehydrogenase (ADH) activity after ingestion of ethanol", "assay_type": "in vivo, CDF1 male mice", "conditions": "mouse liver, 3 hours after ingestion of ethanol", "method": "as §1"}, "[3]": {"tested_on": "GSH concentration in the liver", "test": "GSH concentration in the liver after ingestion of ethanol", "assay_type": "in vivo, CDF1 male mice", "conditions": "mouse liver, % of normal state", "method": "as §1, §3"}, "cytochrome P2E1 (CYP2E1)": {"tested_on": "cytochrome P2E1 (CYP2E1)", "test": "Liver CYP2E1 enzyme activity after ingestion of ethanol (HPLC, para-nitrophenol)", "assay_type": "in vivo, CDF1 male mice", "conditions": "mouse liver, 3 hours after ingestion of ethanol", "method": "as §1"}, "[4]": {"tested_on": "lipid peroxide in the liver", "test": "Lipid peroxide concentration in the liver after ingestion of ethanol (TBA fluorometry)", "assay_type": "in vivo, CDF1 male mice", "conditions": "mouse liver; for Lipid peroxide concentration, Mean: ethanol 3.0 g/kg oral, theanine", "method": "as §1\nThe lipid peroxide concentration in the liver was measured in the following method (TBA fluorometry). 0.1 mL of liver sample (2% homogenate in physiological salt solution) was added with 0.5 mL of 3% SDS, 1.5 mL of 2.0 M acetic acid buffer liquid (pH3.6), 1.5 mL of 0.8% thiobarbituric acid and 0.4 mL of purified water so that a total amount was 4.0 mL. In a standard sample, 20 μL of 50 μmol/L malondialdehyde (MDA) was added instead of the above liver sample and 0.48 purified water was added. The solution was heat-treated in boiling water for 75 minutes and thereafter, cooled for 5 minutes. 1.0 mL of 0.2 N […] and 5.0 mL of n-butanol were mixed to the cooled substance and thereafter, shaken for 30 seconds. 1200 g of substance was centrifugally processed for 15 minutes. Supernatant was sampled and fluorometry (excitation wavelength: 515 nm; and fluorescent wavelength: 553 nm) was carried out. The unknown sample was calculated using calibration curve."}}}
{"smiles": "CCNC(=O)CC[C@H](N)C(=O)O", "note": "[Theanine, theanine]", "values": [{"measurement": "AUC0-3 hr of blood ethanol reduced by joint use of theanine as compared with only ethanol", "setting": "[1]; ethanol 3.0 g/kg, theanine 100 mg/kg 30 minutes after ethanol", "result": 76, "unit": "%"}, {"measurement": "GPT concentrations in the blood", "setting": "GPT", "result": "increase of the GPT concentrations could be reduced"}, {"measurement": "lipid peroxide in the liver", "setting": "[2]", "result": "increase of lipid peroxide in the liver would be reduced"}, {"measurement": "GSH concentrations in the liver", "setting": "GSH in the liver", "result": "decrease of the GSH could be reduced"}, {"measurement": "Mortality in acute toxicity test", "setting": "mice", "result": "no mice died"}]}
{"smiles": "CCO", "note": "[Ethanol]", "values": [{"measurement": "Ethanol concentration in the blood, Mean", "setting": "[1]; time 0 h", "result": 0, "unit": "mg/mL"}, {"measurement": "Ethanol concentration in the blood, Mean", "setting": "[1]; time 0.5 h", "result": 0.498, "unit": "mg/mL"}, {"measurement": "Ethanol concentration in the blood, Mean", "setting": "[1]; time 1 h", "result": 0.108, "unit": "mg/mL"}, {"measurement": "Ethanol concentration in the blood, Mean", "setting": "[1]; time 3 h", "result": 0.022, "unit": "mg/mL"}, {"measurement": "ALDH activity as compared with control", "setting": "aldehyde dehydrogenase", "result": "about 63.5%"}, {"measurement": "ALDH activity, Mean", "setting": "aldehyde dehydrogenase", "result": 5.80, "unit": "μmol/min · mg protein"}, {"measurement": "GPT concentrations in the blood", "setting": "GPT", "result": "increased"}, {"measurement": "ADH activity as compared with control (normal state)", "setting": "alcohol dehydrogenase", "result": "about 123%"}, {"measurement": "ADH activity, Mean", "setting": "alcohol dehydrogenase", "result": 9.13, "unit": "μmol/min · mg protein"}, {"measurement": "GSH concentration (%), Mean", "setting": "[3]; time 0 h", "result": 100.00, "unit": "%"}, {"measurement": "GSH concentration (%), Mean", "setting": "[3]; time 0.5 h", "result": 79.84, "unit": "%"}, {"measurement": "GSH concentration (%), Mean", "setting": "[3]; time 1 h", "result": 78.83, "unit": "%"}, {"measurement": "GSH concentration (%), Mean", "setting": "[3]; time 2 h", "result": 81.57, "unit": "%"}, {"measurement": "GSH concentration (%), Mean", "setting": "[3]; time 3 h", "result": 75.96, "unit": "%"}, {"measurement": "GSH concentration (%), Mean", "setting": "[3]; time 5 h", "result": 65.50, "unit": "%"}, {"measurement": "GSH concentration (%), Mean", "setting": "[3]; time 5 h, listed as ethanol", "result": 65.5, "unit": "%"}, {"measurement": "CYP2E1 activity, Mean", "setting": "cytochrome P2E1 (CYP2E1)", "result": 20.4, "unit": "nmol/mg protein/min"}, {"measurement": "GSH concentrations in the liver", "setting": "GSH in the liver", "result": "decreased"}, {"measurement": "Lipid peroxide concentration, Mean", "setting": "[4]; time 0 h", "result": 0.617, "unit": "mg/mL"}, {"measurement": "Lipid peroxide concentration, Mean", "setting": "[4]; time 0.5 h", "result": 0.573, "unit": "mg/mL"}, {"measurement": "Lipid peroxide concentration, Mean", "setting": "[4]; time 1 h", "result": 0.565, "unit": "mg/mL"}, {"measurement": "Lipid peroxide concentration, Mean", "setting": "[4]; time 2 h", "result": 0.580, "unit": "mg/mL"}, {"measurement": "Lipid peroxide concentration, Mean", "setting": "[4]; time 3 h", "result": 1.036, "unit": "mg/mL"}, {"measurement": "Lipid peroxide concentration, Mean", "setting": "[4]; time 5 h", "result": 0.568, "unit": "mg/mL"}, {"measurement": "lipid peroxide", "setting": "[4]; only ethanol ingested, peak value (3 h in Table 2)", "result": 1.036, "unit": "u mol/g protein"}, {"measurement": "Lipid peroxide concentration (%) of the value in the normal state", "setting": "[4]; time 0 h", "result": 100, "unit": "%"}, {"measurement": "Lipid peroxide concentration (%) of the value in the normal state", "setting": "[4]; time 0.5 h", "result": 93, "unit": "%"}, {"measurement": "Lipid peroxide concentration (%) of the value in the normal state", "setting": "[4]; time 1 h", "result": 92, "unit": "%"}, {"measurement": "Lipid peroxide concentration (%) of the value in the normal state", "setting": "[4]; time 2 h", "result": 94, "unit": "%"}, {"measurement": "Lipid peroxide concentration (%) of the value in the normal state", "setting": "[4]; time 3 h", "result": 168, "unit": "%"}, {"measurement": "Lipid peroxide concentration (%) of the value in the normal state", "setting": "[4]; time 5 h", "result": 92, "unit": "%"}]}
